One assay deals with Kv1.5 (Homo sapiens, UniProt P22460). Description: Kv1.5 inhibition assay (IKur inhibitor assay per cited references). The note with it: at 0.3 μM. The class given is cell-based. The text has this: Assays to determine the degree of activity of a compound as an IKur inhibitor are well known in the art and are described in references such as J. Gen. Physiol. Apr.; 101 (4):513-43, and Br. J. Pharmacol. 1995 May; 115(2):267-74.
Chain of Kv1.5 (P22460 whole entry): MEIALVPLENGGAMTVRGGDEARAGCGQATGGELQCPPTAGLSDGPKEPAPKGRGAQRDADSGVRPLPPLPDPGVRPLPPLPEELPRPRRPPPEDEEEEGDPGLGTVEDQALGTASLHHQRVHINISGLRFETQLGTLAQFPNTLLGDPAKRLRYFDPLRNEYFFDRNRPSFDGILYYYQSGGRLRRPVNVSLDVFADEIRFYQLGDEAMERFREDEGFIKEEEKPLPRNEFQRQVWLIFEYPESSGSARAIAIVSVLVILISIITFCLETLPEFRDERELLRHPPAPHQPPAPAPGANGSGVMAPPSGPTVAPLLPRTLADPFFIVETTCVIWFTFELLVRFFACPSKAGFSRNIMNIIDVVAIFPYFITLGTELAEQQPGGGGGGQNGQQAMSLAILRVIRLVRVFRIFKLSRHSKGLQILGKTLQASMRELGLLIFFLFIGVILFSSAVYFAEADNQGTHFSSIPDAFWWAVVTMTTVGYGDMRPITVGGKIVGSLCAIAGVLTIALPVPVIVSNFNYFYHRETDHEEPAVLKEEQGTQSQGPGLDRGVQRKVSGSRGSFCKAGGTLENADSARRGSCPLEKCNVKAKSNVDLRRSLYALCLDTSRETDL
The compound `CCCCS(=O)(=O)C1=C(C)Nc2cc(C)nn2C1c1ccc(Cl)c(Cl)c1` (single isomer, unassigned) [Example 18 Isomer 2, 6-(Butylsulfonyl)-7-(3,4-dichlorophenyl)-2,5-dimethyl-4,7-dihydropyrazolo[1,5-a]pyrimidine] came in with a Kv1.5% inhibition of 28.8%. For orientation: inhibition means how much of the control response was suppressed. For `COc1ccc(S(=O)(=O)C2=C(C)Nc3cc(C)nn3C2c2ccc(Cl)cc2)cc1` (single isomer, unassigned) [Example 19 Isomer 2, 7-(4-Chlorophenyl)-6-(4-methoxyphenylsulfonyl)-2,5-dimethyl-4,7-dihydropyrazolo[1,5-a]pyrimidine], 0.3 µM produced 42.3% inhibition. In the case of `COc1ccc(S(=O)(=O)C2=C(C)Nc3cc(C)nn3C2c2nc3ccccc3n2C)cc1` (single isomer, unassigned) [Example 23 Isomer 1, 6-(4-Methoxyphenylsulfonyl)-2,5-dimethyl-7-(1-methyl-1H-benzo[d]imidazol-2-yl)-4,7-dihydropyrazolo[1,5-a]pyrimidine], the Kv1.5% inhibition is listed as 6.5%. On the same count and under the same terms, the same measure for `COc1ccc(S(=O)(=O)C2=C(C)Nc3cc(C)nn3C2c2nc3ccccc3n2C)cc1` (single isomer, unassigned) [Example 23 Isomer 2, 6-(4-Methoxyphenylsulfonyl)-2,5-dimethyl-7-(1-methyl-1H-benzo[d]imidazol-2-yl)-4,7-dihydropyrazolo[1,5-a]pyrimidine]: 16.6%. For `COc1ccc(S(=O)(=O)C2=C(C)Nc3cc(C(F)(F)F)nn3C2c2ccc(Cl)cc2)cc1` (single isomer, unassigned) [Example 25 Isomer 1, 7-(4-Chlorophenyl)-6-(4-methoxyphenylsulfonyl)-5-methyl-2-(trifluoromethyl)-4,7-dihydropyrazolo[1,5-a]pyrimidine], the inhibition at 0.3 µM was 85.6%. Regarding `COc1ccc(S(=O)(=O)C2=C(C)Nc3cc(C(F)(F)F)nn3C2c2ccc(Cl)cc2)cc1` (single isomer, unassigned) [Example 25 Isomer 2, 7-(4-Chlorophenyl)-6-(4-methoxyphenylsulfonyl)-5-methyl-2-(trifluoromethyl)-4,7-dihydropyrazolo[1,5-a]pyrimidine], the Kv1.5% inhibition came to 82.9%. For `CC1=C(S(=O)(=O)c2ccccc2)C(c2ccc(Cl)cc2)n2nc(C(F)(F)F)cc2N1` (single isomer, unassigned) [Example 26 Isomer 1, 7-(4-Chlorophenyl)-5-methyl-6-(phenylsulfonyl)-2-(trifluoromethyl)-4,7-dihydropyrazolo[1,5-a]pyrimidine], the inhibition at 0.3 µM turned out to be 85.8%. Take `CC1=C(S(=O)(=O)c2ccccc2)C(c2ccc(Cl)cc2)n2nc(C(F)(F)F)cc2N1` (single isomer, unassigned) [Example 26 Isomer 2, 7-(4-Chlorophenyl)-5-methyl-6-(phenylsulfonyl)-2-(trifluoromethyl)-4,7-dihydropyrazolo[1,5-a]pyrimidine]: the Kv1.5% inhibition is 85.9%. On to `CC1=C(S(=O)(=O)c2ccc(F)cc2)C(c2ccc(Cl)cc2)n2nc(C(F)(F)F)cc2N1` (single isomer, unassigned) [Example 27 Isomer 1, 7-(4-Chlorophenyl)-6-(4-fluorophenylsulfonyl)-5-methyl-2-(trifluoromethyl)-4,7-dihydropyrazolo[1,5-a]pyrimidine], for which 0.3 µM produced 47.6% inhibition. The same measure, in the same setting: the same measure for `CC1=C(S(=O)(=O)c2ccc(C)cc2)C(c2ccc(Cl)cc2)n2nc(C(F)(F)F)cc2N1` (single isomer, unassigned) [Example 28 Isomer 1, 7-(4-Chlorophenyl)-5-methyl-6-tosyl-2-(trifluoromethyl)-4,7-dihydropyrazolo[1,5-a]pyrimidine]: 77.4%. `CC1=C(S(=O)(=O)c2ccc(C)cc2)C(c2ccc(Cl)cc2)n2nc(C(F)(F)F)cc2N1` (single isomer, unassigned) [Example 28 Isomer 2, 7-(4-Chlorophenyl)-5-methyl-6-tosyl-2-(trifluoromethyl)-4,7-dihydropyrazolo[1,5-a]pyrimidine] gave a Kv1.5% inhibition of 83.4%. For `CC1=C(S(=O)(=O)C2CCCCC2)C(c2ccc(Cl)cc2)n2nc(C(F)(F)F)cc2N1` (single isomer, unassigned) [Example 29 Isomer 2, 7-(4-Chlorophenyl)-6-(cyclohexylsulfonyl)-5-methyl-2-(trifluoromethyl)-4,7-dihydropyrazolo[1,5-a]pyrimidine], the inhibition at 0.3 µM worked out at 87.9%.

In the case of `CCCCS(=O)(=O)C1=C(C)Nc2cc(C(F)(F)F)nn2C1c1ccc(Cl)cc1` (single isomer, unassigned) [Example 30 Isomer 2, 6-(Butylsulfonyl)-7-(4-chlorophenyl)-5-methyl-2-(trifluoromethyl)-4,7-dihydropyrazolo[1,5-a]pyrimidine], 0.3 µM produced 77% inhibition. The same measure, in the same setting: the same measure for `CC1=C(S(=O)(=O)c2ccc(Cl)cc2)C(c2ccc(Cl)cc2)n2nc(C(F)(F)F)cc2N1` (single isomer, unassigned) [Example 31 Isomer 1, 7-(4-Chlorophenyl)-6-(4-chlorophenylsulfonyl)-5-methyl-2-(trifluoromethyl)-4,7-dihydropyrazolo[1,5-a]pyrimidine]: 82.7%. `CC1=C(S(=O)(=O)c2ccc(Cl)cc2)C(c2ccc(Cl)cc2)n2nc(C(F)(F)F)cc2N1` (single isomer, unassigned) [Example 31 Isomer 2, 7-(4-Chlorophenyl)-6-(4-chlorophenylsulfonyl)-5-methyl-2-(trifluoromethyl)-4,7-dihydropyrazolo[1,5-a]pyrimidine] gave a Kv1.5% inhibition of 81.9%. In turn, `COc1ccc(S(=O)(=O)C2=C(C)Nc3cc(C(F)(F)F)nn3C2c2ccc(C)c(F)c2)cc1` (single isomer, unassigned) [Example 32 Isomer 1, 7-(3-Fluoro-4-methylphenyl)-6-(4-methoxyphenylsulfonyl)-5-methyl-2-(trifluoromethyl)-4,7-dihydropyrazolo[1,5-a]pyrimidine] returned an inhibition at 0.3 µM of 81.8%. The compound `COc1ccc(S(=O)(=O)C2=C(C)Nc3cc(C(F)(F)F)nn3C2c2ccc(C)c(F)c2)cc1` (single isomer, unassigned) [Example 32 Isomer 2, 7-(3-Fluoro-4-methylphenyl)-6-(4-methoxyphenylsulfonyl)-5-methyl-2-(trifluoromethyl)-4,7-dihydropyrazolo[1,5-a]pyrimidine] registered a Kv1.5% inhibition of 72.7%. The compound `CC1=C(S(=O)(=O)c2ccccc2)C(c2ccc(Cl)c(F)c2)n2nc(C(F)(F)F)cc2N1` (single isomer, unassigned) [Example 33 Isomer 1, 7-(4-Chloro-3-fluorophenyl)-5-methyl-6-(phenylsulfonyl)-2-(trifluoromethyl)-4,7-dihydropyrazolo[1,5-a]pyrimidine] registered an inhibition at 0.3 µM of 75.5%. Regarding `CC1=C(S(=O)(=O)c2ccccc2)C(c2ccc(Cl)c(F)c2)n2nc(C(F)(F)F)cc2N1` (single isomer, unassigned) [Example 33 Isomer 2, 7-(4-Chloro-3-fluorophenyl)-5-methyl-6-(phenylsulfonyl)-2-(trifluoromethyl)-4,7-dihydropyrazolo[1,5-a]pyrimidine], the Kv1.5% inhibition was 76.5%.

Staying with this assay, now noted: read-out: Kv1.5 IC50.
As usually defined, the IC50 is the concentration that inhibits the measured activity by half. With `COc1ccc(S(=O)(=O)C2=C(C)Nc3cc(C)nn3C2c2ccc(Cl)cc2)cc1` (single isomer, unassigned) [Example 19 Isomer 1, 7-(4-Chlorophenyl)-6-(4-methoxyphenylsulfonyl)-2,5-dimethyl-4,7-dihydropyrazolo[1,5-a]pyrimidine], the IC50 was 55 nM. Same read-out and setting: the same measure for `COc1ccc(S(=O)(=O)C2=C(C)Nc3cc(C)nn3C2c2ccc(C)c(F)c2)cc1` (single isomer, unassigned) [Example 24 Isomer 1, 7-(3-Fluoro-4-methylphenyl)-6-(4-methoxyphenylsulfonyl)-2,5-dimethyl-4,7-dihydropyrazolo[1,5-a]pyrimidine]: 148 nM; for `COc1ccc(S(=O)(=O)C2=C(C)Nc3cc(C)nn3C2c2ccc(C)c(F)c2)cc1` (single isomer, unassigned) [Example 24 Isomer 2, 7-(3-Fluoro-4-methylphenyl)-6-(4-methoxyphenylsulfonyl)-2,5-dimethyl-4,7-dihydropyrazolo[1,5-a]pyrimidine]: 322 nM; for `CC1=C(S(=O)(=O)c2ccc(F)cc2)C(c2ccc(Cl)cc2)n2nc(C(F)(F)F)cc2N1` (single isomer, unassigned) [Example 27 Isomer 2, 7-(4-Chlorophenyl)-6-(4-fluorophenylsulfonyl)-5-methyl-2-(trifluoromethyl)-4,7-dihydropyrazolo[1,5-a]pyrimidine]: 92 nM.

`CC1=C(S(=O)(=O)C2CCCCC2)C(c2ccc(Cl)cc2)n2nc(C(F)(F)F)cc2N1` (single isomer, unassigned) [Example 29 Isomer 1, 7-(4-Chlorophenyl)-6-(cyclohexylsulfonyl)-5-methyl-2-(trifluoromethyl)-4,7-dihydropyrazolo[1,5-a]pyrimidine]: the IC50 worked out at 204 nM.

On to `CCCCS(=O)(=O)C1=C(C)Nc2cc(C(F)(F)F)nn2C1c1ccc(Cl)cc1` (single isomer, unassigned) [Example 30 Isomer 1, 6-(Butylsulfonyl)-7-(4-chlorophenyl)-5-methyl-2-(trifluoromethyl)-4,7-dihydropyrazolo[1,5-a]pyrimidine], for which the IC50 was found to be 210 nM. Same read-out and setting: the same measure for `CC1=C(S(=O)(=O)c2ccc(Cl)cc2)C(c2ccccc2)n2nc(C(F)(F)F)cc2N1` (single isomer, unassigned) [Example 35 Isomer 1, 6-(4-Chlorophenylsulfonyl)-5-methyl-7-phenyl-2-(trifluoromethyl)-4,7-dihydropyrazolo[1,5-a]pyrimidine]: 277 nM; for `CC1=C(S(=O)(=O)c2ccc(Cl)cc2)C(c2ccccc2)n2nc(C(F)(F)F)cc2N1` (single isomer, unassigned) [Example 35 Isomer 2, 6-(4-Chlorophenylsulfonyl)-5-methyl-7-phenyl-2-(trifluoromethyl)-4,7-dihydropyrazolo[1,5-a]pyrimidine]: 252 nM.

Values taken from patent publication US7507730B2, “Substituted pyrazolo[1,5-a]pyrimidines as potassium channel activators” (Bristol-Myers Squibb Company, priority 2005, dated 2009).
